# Source: PubChem BioAssay (NCI)
#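 All cell lines were grown in 96-well plates and treated with compound for 48 hours. The concentration for full growth arrest is given as TGI.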
# Columns and labels:
# Test in all cases: NCI anticancer screen, dose series, 48 h
# [1] = tested on: OVCAR-3 ovarian
# [2] = tested on: DMS 114 small cell lung
# [3] = tested on: DMS 273 small cell lung
# [4] = tested on: HCC-2998 colon
# [5] = tested on: SNB-19 CNS
# [6] = tested on: NCI-H23 lung
# [7] = tested on: LOX IMVI melanoma
# [8] = tested on: UO-31 renal
# [9] = tested on: SR leukemia
# [10] = tested on: SK-OV-3 ovarian
# [11] = tested on: UACC-257 melanoma
# [12] = tested on: RXF-631 renal
# [13] = tested on: COLO 205 colon
# [14] = tested on: HL-60(TB) leukemia
# [15] = tested on: SF-539 CNS
# [16] = tested on: NCI-H522 lung
# [17] = tested on: SK-MEL-28 melanoma
# [18] = tested on: SK-MEL-2 melanoma
# [19] = tested on: OVCAR-4 ovarian
# [20] = tested on: M14 melanoma
# [21] = tested on: SF-268 CNS
# [22] = tested on: XF 498 CNS
# [23] = tested on: SNB-75 CNS
# [24] = tested on: OVCAR-8 ovarian
# [25] = tested on: EKVX NSCLC
# [26] = tested on: HCT-15 colon
# [27] = tested on: SF-295 CNS
# [28] = tested on: UACC-62 melanoma
# [29] = tested on: CAKI-1 renal
# [30] = tested on: RXF 393 renal
# [31] = tested on: KM12 colon
# [32] = tested on: NCI-H226 lung
# [33] = tested on: OVCAR-5 ovarian
# [34] = tested on: SN12C renal
# [35] = tested on: LXFL 529 NSCLC
# [36] = tested on: M19-MEL melanoma
# [37] = tested on: K-562 leukemia
# [38] = tested on: MOLT-4 leukemia
# [39] = tested on: CCRF-CEM leukemia
# [40] = tested on: RPMI-8226 leukemia
# [41] = tested on: IGROV1 ovarian
# [42] = tested on: A549 NSCLC
# [43] = tested on: MALME-3M melanoma
# [44] = tested on: HT29 colon
# [45] = tested on: KM20L2 colon
# [46] = tested on: DLD-1 colon
# [47] = tested on: U251 CNS
# [48] = tested on: NCI-H460 lung
# [49] = tested on: HOP-62 NSCLC
# [50] = tested on: HCT-116 colon
# [51] = tested on: SW-620 colon
# [52] = tested on: TK-10 renal
# [53] = tested on: 786-0 renal
# [54] = tested on: ACHN renal
# [55] = tested on: SNB-78 CNS
# [56] = tested on: HOP-92 NSCLC
# [57] = tested on: SK-MEL-5 melanoma
# [58] = tested on: A498 renal
structure (smiles),measurement,setting,value
O=S(=O)(c1ccccc1)C1CN2OC1(S(=O)(=O)c1ccccc1)CC21CCCCC1 (stereo not drawn),TGI,[1],> 100 µM
same,TGI,[2],> 100 µM
same,TGI,[3],> 100 µM
same,TGI,[4],> 100 µM
same,TGI,[5],> 100 µM
same,TGI,[6],> 100 µM
same,TGI,[7],> 100 µM
same,TGI,[8],> 100 µM
same,TGI,[9],> 100 µM
same,TGI,[10],> 100 µM
same,TGI,[11],> 100 µM
same,TGI,[12],> 100 µM
same,TGI,[13],> 100 µM
same,TGI,[14],> 100 µM
same,TGI,[15],> 100 µM
same,TGI,[16],> 100 µM
same,TGI,[17],> 100 µM
same,TGI,[18],> 100 µM
same,TGI,[19],> 100 µM
same,TGI,[20],> 100 µM
same,TGI,[21],> 100 µM
same,TGI,[22],> 100 µM
same,TGI,[23],> 100 µM
same,TGI,[24],> 100 µM
same,TGI,[25],> 100 µM
same,TGI,[26],> 100 µM
same,TGI,[27],> 100 µM
same,TGI,[28],> 100 µM
same,TGI,[29],> 100 µM
same,TGI,[30],> 100 µM
same,TGI,[31],> 100 µM
same,TGI,[32],> 100 µM
same,TGI,[33],> 100 µM
same,TGI,[34],> 100 µM
same,TGI,[35],> 100 µM
same,TGI,[36],> 100 µM
same,TGI,[37],> 100 µM
same,TGI,[38],> 100 µM
same,TGI,[39],> 100 µM
same,TGI,[40],> 100 µM
same,TGI,[41],> 100 µM
same,TGI,[42],> 100 µM
same,TGI,[43],> 100 µM
same,TGI,[44],> 100 µM
same,TGI,[45],> 100 µM
same,TGI,[46],> 100 µM
same,TGI,[47],> 100 µM
same,TGI,[48],> 100 µM
same,TGI,[49],> 100 µM
same,TGI,[50],> 100 µM
same,TGI,[51],> 100 µM
same,TGI,[52],> 100 µM
same,TGI,[53],> 100 µM
same,TGI,[54],> 100 µM
COC(=O)CCC1(NS(=O)(=O)c2ccc(C)cc2)CCC(C(C)(C)C)CC1 (stereo not drawn),TGI,[1],23.2 µM
same,TGI,[2],20.3 µM
same,TGI,[3],31.2 µM
same,TGI,[4],30.3 µM
same,TGI,[55],67.2 µM
same,TGI,[5],35.6 µM
same,TGI,[6],29.2 µM
same,TGI,[7],38 µM
same,TGI,[8],16 µM
same,TGI,[10],> 100 µM
same,TGI,[11],24.7 µM
same,TGI,[12],45.2 µM
same,TGI,[13],26.8 µM
same,TGI,[14],11.8 µM
same,TGI,[15],26.2 µM
same,TGI,[16],21.3 µM
same,TGI,[17],25.3 µM
same,TGI,[18],33.5 µM
same,TGI,[19],32.1 µM
same,TGI,[20],33.7 µM
same,TGI,[22],30.7 µM
same,TGI,[23],41.2 µM
same,TGI,[56],27.1 µM
same,TGI,[24],40.7 µM
same,TGI,[27],26.5 µM
same,TGI,[28],26.4 µM
same,TGI,[29],27.3 µM
same,TGI,[31],44.7 µM
same,TGI,[33],32.8 µM
same,TGI,[34],28.5 µM
same,TGI,[35],68.3 µM
same,TGI,[36],25.2 µM
same,TGI,[37],33.7 µM
same,TGI,[57],19.3 µM
same,TGI,[38],25.2 µM
same,TGI,[39],37 µM
same,TGI,[40],21.4 µM
same,TGI,[41],41.7 µM
same,TGI,[42],73.4 µM
same,TGI,[43],35.4 µM
same,TGI,[44],31.8 µM
same,TGI,[46],65.9 µM
same,TGI,[47],29 µM
same,TGI,[48],92 µM
same,TGI,[49],36.1 µM
same,TGI,[50],22.2 µM
same,TGI,[51],37.3 µM
same,TGI,[52],65.4 µM
same,TGI,[53],29 µM
same,TGI,[58],28.8 µM
CN(C)CCCCC1CCN(CC(=O)N2c3ccccc3NC(=O)c3ccccc32)CC1,TGI,[1],> 100 µM
same,TGI,[2],> 100 µM
same,TGI,[3],> 100 µM
same,TGI,[4],> 100 µM
same,TGI,[55],> 100 µM
same,TGI,[5],> 100 µM
same,TGI,[6],> 100 µM
same,TGI,[8],> 100 µM
same,TGI,[9],> 100 µM
same,TGI,[10],> 100 µM
same,TGI,[11],> 100 µM
same,TGI,[12],> 100 µM
same,TGI,[13],> 100 µM
same,TGI,[14],> 100 µM
same,TGI,[15],> 100 µM
same,TGI,[16],> 100 µM
same,TGI,[17],> 100 µM
same,TGI,[18],> 100 µM
same,TGI,[19],> 100 µM
same,TGI,[20],72.9 µM
same,TGI,[21],> 100 µM
same,TGI,[22],> 100 µM
same,TGI,[23],> 100 µM
same,TGI,[56],> 100 µM
same,TGI,[24],> 100 µM
same,TGI,[25],> 100 µM
same,TGI,[27],> 100 µM
same,TGI,[28],> 100 µM
same,TGI,[29],> 100 µM
same,TGI,[31],> 100 µM
same,TGI,[32],> 100 µM
same,TGI,[34],> 100 µM
same,TGI,[35],> 100 µM
same,TGI,[36],> 100 µM
same,TGI,[37],> 100 µM
same,TGI,[57],> 100 µM
same,TGI,[38],> 100 µM
same,TGI,[39],> 100 µM
same,TGI,[40],> 100 µM
same,TGI,[42],> 100 µM
same,TGI,[43],> 100 µM
same,TGI,[44],> 100 µM
same,TGI,[46],> 100 µM
same,TGI,[49],> 100 µM
same,TGI,[50],> 100 µM
same,TGI,[51],> 100 µM
same,TGI,[52],> 100 µM
same,TGI,[53],> 100 µM
same,TGI,[58],> 100 µM
